Results as given in patent US20250263395A1, “COMPOUNDS THAT MEDIATE PROTEIN DEGRADATION AND METHODS OF USE THEREOF” (Monte Rosa Therapeutics AG, priority 2022, published 2025).

Legend:
CRBN-DDB1 = CRBN-DDB1 (Homo sapiens (Human), UniProt Q96SW2); experiment: CRBN HTRF assay (Cy5-Thalidomide probe displacement); type: binding; conditions: CRBN-DDB1 2.5 nM, Cy5-Thalidomide 100 nM, 30 min; Ki from geometric mean IC50 by Cheng-Prusoff
Summary of the method: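 HTRF displacement of Cy5-thalidomide probe (100 nM) from His-CRBN-DDB1 (2.5 nM) with anti-His terbium cryptate, in HEPES/NaCl/TCEP/EDTA/Tween20 buffer. 10-point 1:3 compound series, 30 min at ambient temperature; signal normalised to DMSO and lenalidomide controls, IC50 fitted and Ki derived by Cheng-Prusoff.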

CDK2 = CDK2 (Homo sapiens (Human), UniProt P24941); experiment: CDK2 NanoBiT assay (HiBiT-tagged CDK2 degradation); type: cell-based; conditions: HEK293, HEK293 clonal line, C-terminal HiBiT tag on CDK2, LgBiT; 24 hours
Summary of the method: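 HEK293 line with CRISPR knock-in C-terminal HiBiT-tagged CDK2 and stable LgBiT, preincubated 16 h with live-cell substrate, then compound-treated 24 h at 37° C, 5% CO2 (30 μM stock). Luminescence normalized to plate negative and positive controls; EC50 from 3-parameter logistic fit, Hill slope 1.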

Sequence of CRBN-DDB1 (Q96SW2 whole entry): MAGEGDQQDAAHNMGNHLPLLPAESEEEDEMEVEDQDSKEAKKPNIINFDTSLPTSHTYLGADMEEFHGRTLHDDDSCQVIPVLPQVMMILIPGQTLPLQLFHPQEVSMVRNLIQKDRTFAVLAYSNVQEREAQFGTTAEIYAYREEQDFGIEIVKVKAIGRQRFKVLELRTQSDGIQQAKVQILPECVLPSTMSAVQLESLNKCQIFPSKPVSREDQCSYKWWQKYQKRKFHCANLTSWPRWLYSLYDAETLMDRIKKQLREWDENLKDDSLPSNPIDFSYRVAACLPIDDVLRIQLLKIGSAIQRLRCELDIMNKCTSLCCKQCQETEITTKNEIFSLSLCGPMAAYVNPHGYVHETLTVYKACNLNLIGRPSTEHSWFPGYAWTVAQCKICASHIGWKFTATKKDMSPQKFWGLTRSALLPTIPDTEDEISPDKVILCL
Sequence of CRBN-DDB1 (Q16531 whole entry partner): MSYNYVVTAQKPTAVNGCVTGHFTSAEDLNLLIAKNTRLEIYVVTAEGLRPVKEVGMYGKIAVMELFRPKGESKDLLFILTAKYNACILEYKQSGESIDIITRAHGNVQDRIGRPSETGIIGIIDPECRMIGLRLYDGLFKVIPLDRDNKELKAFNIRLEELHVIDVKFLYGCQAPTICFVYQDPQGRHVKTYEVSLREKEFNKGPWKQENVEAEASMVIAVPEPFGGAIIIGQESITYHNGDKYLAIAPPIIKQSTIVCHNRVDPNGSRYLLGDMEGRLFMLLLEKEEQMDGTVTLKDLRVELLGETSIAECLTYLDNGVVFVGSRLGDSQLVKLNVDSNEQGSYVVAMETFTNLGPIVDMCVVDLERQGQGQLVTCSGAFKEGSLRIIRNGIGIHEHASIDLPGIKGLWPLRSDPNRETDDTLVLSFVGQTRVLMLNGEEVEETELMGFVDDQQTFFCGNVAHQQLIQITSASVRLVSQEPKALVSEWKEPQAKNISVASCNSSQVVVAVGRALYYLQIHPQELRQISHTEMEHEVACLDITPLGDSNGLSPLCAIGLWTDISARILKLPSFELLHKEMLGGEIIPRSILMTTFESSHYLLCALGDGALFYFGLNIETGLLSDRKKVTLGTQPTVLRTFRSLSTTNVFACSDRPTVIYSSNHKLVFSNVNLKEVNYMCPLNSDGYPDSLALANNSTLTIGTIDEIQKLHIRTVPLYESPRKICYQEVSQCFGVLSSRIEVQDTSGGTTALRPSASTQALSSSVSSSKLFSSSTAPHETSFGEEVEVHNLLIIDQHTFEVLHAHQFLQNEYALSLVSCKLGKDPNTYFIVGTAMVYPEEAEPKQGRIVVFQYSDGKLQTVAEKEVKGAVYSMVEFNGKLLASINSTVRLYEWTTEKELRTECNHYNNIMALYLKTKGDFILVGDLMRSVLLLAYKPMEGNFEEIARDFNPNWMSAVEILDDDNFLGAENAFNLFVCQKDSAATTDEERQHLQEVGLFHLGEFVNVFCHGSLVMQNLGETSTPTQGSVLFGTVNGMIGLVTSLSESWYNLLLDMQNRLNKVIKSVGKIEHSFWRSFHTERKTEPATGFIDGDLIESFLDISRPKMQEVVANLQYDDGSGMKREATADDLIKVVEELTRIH

Structure (SMILES) | Ki (CRBN-DDB1) | Dmax (CDK2)
O=C1CC[C@@H](c2c(F)cc(N3CC[C@@H](NC(=O)OCC4CC5(CCC5)C4)C3=O)cc2F)C(=O)N1 [Compound 55, spiro[3.3]heptan-2-ylmethyl ((R)-1-(4-((S)-2,6-dioxopiperidin-3-yl)-3,5-difluorophenyl)-2-oxopyrrolidin-3-yl)carbamate] | 0.1 to 1 µM | 50 to 80%
CC1(NC(=O)OCC2CC3(CCC3)C2)CN(c2cc(F)c(C3CCC(=O)NC3=O)c(F)c2)C1 (centres unmarked) [Compound 56, spiro[3.3]heptan-2-ylmethyl (1-(4-(2,6-dioxopiperidin-3-yl)-3,5-difluorophenyl)-3-methylazetidin-3-yl)carbamate] | ≤ 0.1 µM | > 80%
O=C1CCC(c2c(F)cc(N3C[C@@H](NC(=O)OCC4CC5(CCC5)C4)CC3=O)cc2F)C(=O)N1 (stereo partly drawn) [Compound 57, spiro[3.3]heptan-2-ylmethyl ((3S)-1-(4-(2,6-dioxopiperidin-3-yl)-3,5-difluorophenyl)-5-oxopyrrolidin-3-yl)carbamate] | 0.1 to 1 µM | 50 to 80%
O=C1CCC(c2c(F)cc(N3C[C@H](NC(=O)OCC4CC5(CCC5)C4)CC3=O)cc2F)C(=O)N1 (stereo partly drawn) [Compound 58, spiro[3.3]heptan-2-ylmethyl ((3R)-1-(4-(2,6-dioxopiperidin-3-yl)-3,5-difluorophenyl)-5-oxopyrrolidin-3-yl)carbamate] | ≤ 0.1 µM | 50 to 80%
O=C1CCC(c2ccc(N3CC(NC(=O)OCC4CC5(CCC5)C4)C3)cc2F)C(=O)N1 (centres unmarked) [Compound 59, spiro[3.3]heptan-2-ylmethyl (1-(4-(2,6-dioxopiperidin-3-yl)-3-fluorophenyl)azetidin-3-yl)carbamate] | ≤ 0.1 µM | > 80%
O=C1CCC(c2ccc(N3CC(NC(=O)OCC4CC5(CCC5)C4)C3)cc2Cl)C(=O)N1 (centres unmarked) [Compound 60, spiro[3.3]heptan-2-ylmethyl (1-(3-chloro-4-(2,6-dioxopiperidin-3-yl)phenyl)azetidin-3-yl)carbamate] | ≤ 0.1 µM | > 80%
O=C1CCC(c2c(F)cc(N3CC[C@H](NC(=O)OCC4CC5(CCC5)C4)C3)cc2F)C(=O)N1 (stereo partly drawn) [Compound 61, spiro[3.3]heptan-2-ylmethyl ((3S)-1-(4-(2,6-dioxopiperidin-3-yl)-3,5-difluorophenyl)pyrrolidin-3-yl)carbamate] | 0.1 to 1 µM | > 80%
O=C1CCC(c2ccc(N3CC(NC(=O)OCC4CC5(CCC5)C4)C3)cc2)C(=O)N1 (centres unmarked) [Compound 62, spiro[3.3]heptan-2-ylmethyl (1-(4-(2,6-dioxopiperidin-3-yl)phenyl)azetidin-3-yl)carbamate] | 0.1 to 1 µM | > 80%
COc1c(N2CC(NC(=O)OCC3CC4(CCC4)C3)C2)ccc(C2CCC(=O)NC2=O)c1Cl (centres unmarked) [Compound 63, spiro[3.3]heptan-2-ylmethyl (1-(3-chloro-4-(2,6-dioxopiperidin-3-yl)-2-methoxyphenyl)azetidin-3-yl)carbamate] | 0.1 to 1 µM | > 80%
O=C1CCC(c2c(F)cc(N3CC[C@@H](NC(=O)OCC4CC5(CCC5)C4)C3)cc2F)C(=O)N1 (stereo partly drawn) [Compound 64, spiro[3.3]heptan-2-ylmethyl ((3R)-1-(4-(2,6-dioxopiperidin-3-yl)-3,5-difluorophenyl)pyrrolidin-3-yl)carbamate] | ≤ 0.1 µM | > 80%
CC(C)(CCOC(=O)NC1CN(c2cc(F)c(C3CCC(=O)NC3=O)c(F)c2)C1)C1CC1 (centres unmarked) [Compound 65, 3-cyclopropyl-3-methylbutyl (1-(4-(2,6-dioxopiperidin-3-yl)-3,5-difluorophenyl)azetidin-3-yl)carbamate] | ≤ 0.1 µM | > 80%
CC1(CCCOC(=O)NC2CN(c3cc(F)c(C4CCC(=O)NC4=O)c(F)c3)C2)CC1 (centres unmarked) [Compound 66, 3-(1-methylcyclopropyl)propyl (1-(4-(2,6-dioxopiperidin-3-yl)-3,5-difluorophenyl)azetidin-3-yl)carbamate] | ≤ 0.1 µM | > 80%
O=C1CCC(c2c(F)cc(N3CC(NC(=O)OC4CC5(CCCCC5)C4)C3)cc2F)C(=O)N1 (centres unmarked) [Compound 67, spiro[3.5]nonan-2-yl (1-(4-(2,6-dioxopiperidin-3-yl)-3,5-difluorophenyl)azetidin-3-yl)carbamate] | ≤ 0.1 µM | > 80%
CC(C)C1CC(COC(=O)NC2CN(c3cc(F)c(C4CCC(=O)NC4=O)c(F)c3)C2)C1 (centres unmarked) [Compound 68, (3-isopropylcyclobutyl)methyl (1-(4-(2,6-dioxopiperidin-3-yl)-3,5-difluorophenyl)azetidin-3-yl)carbamate] | 0.1 to 1 µM | > 80%
O=C1CCC(c2c(F)cc(N3CC(NC(=O)OC4CN(c5nc6ccccc6o5)C4)C3)cc2F)C(=O)N1 (centres unmarked) [Compound 69, 1-(benzo[d]oxazol-2-yl)azetidin-3-yl (1-(4-(2,6-dioxopiperidin-3-yl)-3,5-difluorophenyl)azetidin-3-yl)carbamate] | ≤ 0.1 µM | 50 to 80%
Cc1ccccc1N(C)C(=O)N1CC(OC(=O)NC2CN(c3cc(F)c(C4CCC(=O)NC4=O)c(F)c3)C2)C1 (centres unmarked) [Compound 70, 1-(methyl(o-tolyl)carbamoyl)azetidin-3-yl (1-(4-(2,6-dioxopiperidin-3-yl)-3,5-difluorophenyl)azetidin-3-yl)carbamate] | ≤ 0.1 µM | 50 to 80%
CN(C(=O)N1CC(OC(=O)NC2CN(c3cc(F)c(C4CCC(=O)NC4=O)c(F)c3)C2)C1)c1ccccc1Cl (centres unmarked) [Compound 71, 1-((2-chlorophenyl)(methyl)carbamoyl)azetidin-3-yl (1-(4-(2,6-dioxopiperidin-3-yl)-3,5-difluorophenyl)azetidin-3-yl)carbamate] | ≤ 0.1 µM | 50 to 80%
CN(C(=O)N1CC(OC(=O)NC2CN(c3cc(F)c(C4CCC(=O)NC4=O)c(F)c3)C2)C1)c1ccc(F)cc1 (centres unmarked) [Compound 72, 1-((4-fluorophenyl)(methyl)carbamoyl)azetidin-3-yl (1-(4-(2,6-dioxopiperidin-3-yl)-3,5-difluorophenyl)azetidin-3-yl)carbamate] | ≤ 0.1 µM | > 80%
CN(C(=O)N1CC(OC(=O)NC2CN(c3cc(F)c(C4CCC(=O)NC4=O)c(F)c3)C2)C1)c1ccc(C#N)cc1 (centres unmarked) [Compound 73, 1-((4-cyanophenyl)(methyl)carbamoyl)azetidin-3-yl (1-(4-(2,6-dioxopiperidin-3-yl)-3,5-difluorophenyl)azetidin-3-yl)carbamate] | ≤ 0.1 µM | 50 to 80%
O=C1CCC(c2c(F)cc(N3CC(NC(=O)OC4CN(C(=O)Cc5ccccc5)C4)C3)cc2F)C(=O)N1 (centres unmarked) [Compound 74, 1-(2-phenylacetyl)azetidin-3-yl (1-(4-(2,6-dioxopiperidin-3-yl)-3,5-difluorophenyl)azetidin-3-yl)carbamate] | ≤ 0.1 µM | 50 to 80%
Cn1c(N2CC(OC(=O)NC3CN(c4cc(F)c(C5CCC(=O)NC5=O)c(F)c4)C3)C2)nc2ccccc21 (centres unmarked) [Compound 75, 1-(1-methyl-1H-benzo[d]imidazol-2-yl)azetidin-3-yl (1-(4-(2,6-dioxopiperidin-3-yl)-3,5-difluorophenyl)azetidin-3-yl)carbamate] | ≤ 0.1 µM | 50 to 80%
CN(C)C(=O)C12CC(OC(=O)NC3CN(c4cc(F)c(C5CCC(=O)NC5=O)c(F)c4)C3)(C1)C2 (centres unmarked) [Compound 76, 3-(dimethylcarbamoyl)bicyclo[1.1.1]pentan-1-yl (1-(4-(2,6-dioxopiperidin-3-yl)-3,5-difluorophenyl)azetidin-3-yl)carbamate] | ≤ 0.1 µM | 10 to 50%
Cn1ccnc1N1CC(OC(=O)NC2CN(c3cc(F)c(C4CCC(=O)NC4=O)c(F)c3)C2)C1 (centres unmarked) [Compound 77, 1-(1-methyl-1H-imidazol-2-yl)azetidin-3-yl (1-(4-(2,6-dioxopiperidin-3-yl)-3,5-difluorophenyl)azetidin-3-yl)carbamate] | ≤ 0.1 µM | 10 to 50%
CN(C(=O)C12CC(OC(=O)NC3CN(c4cc(F)c(C5CCC(=O)NC5=O)c(F)c4)C3)(C1)C2)C1CC1 (centres unmarked) [Compound 78, 3-(cyclopropyl(methyl)carbamoyl)bicyclo[1.1.1]pentan-1-yl (1-(4-(2,6-dioxopiperidin-3-yl)-3,5-difluorophenyl)azetidin-3-yl)carbamate] | ≤ 0.1 µM | 50 to 80%
Cc1ccc(N2CC(OC(=O)NC3CN(c4cc(F)c(C5CCC(=O)NC5=O)c(F)c4)C3)C2)nc1 (centres unmarked) [Compound 79, 1-(5-methylpyridin-2-yl)azetidin-3-yl (1-(4-(2,6-dioxopiperidin-3-yl)-3,5-difluorophenyl)azetidin-3-yl)carbamate] | ≤ 0.1 µM | 50 to 80%
Cc1cccc(N2CC(OC(=O)NC3CN(c4cc(F)c(C5CCC(=O)NC5=O)c(F)c4)C3)C2)n1 (centres unmarked) [Compound 80, 1-(6-methylpyridin-2-yl)azetidin-3-yl (1-(4-(2,6-dioxopiperidin-3-yl)-3,5-difluorophenyl)azetidin-3-yl)carbamate] | ≤ 0.1 µM | 50 to 80%
CN(C(=O)C12CC(OC(=O)NC3CN(c4cc(F)c(C5CCC(=O)NC5=O)c(F)c4)C3)(C1)C2)c1ccccc1 (centres unmarked) [Compound 81, 3-(methyl(phenyl)carbamoyl)bicyclo[1.1.1]pentan-1-yl (1-(4-(2,6-dioxopiperidin-3-yl)-3,5-difluorophenyl)azetidin-3-yl)carbamate] | ≤ 0.1 µM | > 80%
CN(CC1CC1)C(=O)C12CC(OC(=O)NC3CN(c4cc(F)c(C5CCC(=O)NC5=O)c(F)c4)C3)(C1)C2 (centres unmarked) [Compound 82, 3-((cyclopropylmethyl)(methyl)carbamoyl)bicyclo[1.1.1]pentan-1-yl (1-(4-(2,6-dioxopiperidin-3-yl)-3,5-difluorophenyl)azetidin-3-yl)carbamate] | ≤ 0.1 µM | > 80%
